IC50 data for 22 compounds are collected here from US5650428A, “Arylsulfonamide derivative and pharmaceutical compositions and use thereof” (NKK Corporation, priority 1993, dated 1997).

Counter-ions that a name gives are not always drawn.

The subject of one assay is rat platelet. Kind of assay: Inhibitory activity of aggregation in rat platelet. The conditions noted are these: rat platelet rich plasma, arachidonic acid (final concentration 0.5 mM) as inducer; read-out: C: Inhibitory activity of aggregation in rat platelet (IC50; μM). Format: cell-based. How it is done:
(3) Inhibitory Activity of Aggregation in Rat Platelet The abdomen of etherized rat was open, and blood was taken from the abdominal arteries, using a sodium citrate solution (final concentration was 0.38%). The blood was centrifuged at 1100 rpm for 10 minutes, and the supernatent was separated as the platelet rich plasma. The plasma was further centrifuged at 2000 rpm for 15 minutes to obtain the supernatent as a platelet poor plasma. The platelet rich plasma (280 μl) was placed in a measuring cuvette and preincubated for 1 minute at 37° C. Then, a sample solution (10 μl) was added. After 2 minutes, an arachidonic acid solution (final concentration=0.5 mM) (10 μl) was added as an inducer. The change in light transmission was recorded for 5 minutes.

Assay [1] addresses T1, thromboxane A2 (TxA2) receptor (Cavia porcellus, UniProt A0A286Y4I8).
T1 construct: to obtain washed platelets; from tissue; host or cells: washed platelets of male Hartley guinea pigs
T1 sequence (A0A286Y4I8 1-347): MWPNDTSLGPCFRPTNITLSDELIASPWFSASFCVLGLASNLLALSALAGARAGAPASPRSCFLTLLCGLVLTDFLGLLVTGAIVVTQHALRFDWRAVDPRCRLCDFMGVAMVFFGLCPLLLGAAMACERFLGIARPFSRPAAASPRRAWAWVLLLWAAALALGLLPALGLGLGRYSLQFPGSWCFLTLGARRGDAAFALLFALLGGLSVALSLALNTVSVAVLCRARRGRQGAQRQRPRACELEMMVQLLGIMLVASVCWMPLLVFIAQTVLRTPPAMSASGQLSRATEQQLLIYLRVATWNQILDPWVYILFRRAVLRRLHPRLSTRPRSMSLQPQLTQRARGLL
Briefly: TxA2 antagonist action by binding assay. The conditions noted are these: washed guinea pig platelets, 1 nM [3H]-SQ29,548, 45 minutes at 25° C. The procedure:
(1) TxA2 antagonist action by binding assay Guinea pigs (Hartley; male; body weight=approximately 500 g) were anesthetized with ether, and the blood was collected into sodium citrate (final concentration=0.38%). The preparation of platelets was carried out at room temperature. The platelet rich plasma was obtained by centrifugation at 980 rpm for 10 minutes. One tenth (1/10) amount of 77 mM-EDTA-Na (pH 7.4) was added to the platelet rich plasma, and the mixture was centrifuged for 10 minutes at 3000 rpm. The suspension was again centrifuged at 3000 rpm for 10 minutes. The precipitate was further resuspended in a suspension buffer (2) shown in Table 2 to obtain washed platelets. The number of platelets was counted by an automatic blood cell counter (Sysmex Microcellcounter F-800) and the sample was diluted with the suspension buffer to 4×10^8 cells/ml. The platelets, sample solution and labeled compounds were placed into plastic tubes in amounts (volumes) shown in the following Table 3, incubated for 45 minutes at 25° C., and then the mixture was filtered using a cell harvester (Brandel cell harvester M-24R) by a glass fiber filter (Whatman GF/B). After the filter was sufficiently dried, the scintillation was counted by a scintillation counter (Beckman LS5000TD). IC50 was calculated from (binding)/(control binding) ratio in the presence of an antagonist. [table 3: the next 10 blocks are its lines as printed, fixed-width]

Broadly, the IC50 is the concentration needed to halve the response being measured. For `O=C(O)Cc1cccc(NC(=O)C(COC2CCCCO2)NS(=O)(=O)c2ccc(Cl)cc2)c1` (racemic) [Example 45, (RS)-N-(3-(carboxymethyl)phenyl)-2-(4-chlorobenzenesulfonylamino)-3-(tetrahydropyran-2-yloxy)propanamide], the IC50 in the assay with rat platelet turned out to be 3.6 µM; in assay [1], 0.42 µM. For the compound `O=C(O)CCc1cccc(NC(=O)C(COC2CCCCO2)NS(=O)(=O)c2ccc(Cl)cc2)c1` (racemic) [Example 46, (RS)-N-(3-(carboxyethyl)phenyl)-2-(4-chlorobenzenesulfonylamino)-3-(tetrahydropyran-2-yloxy)propanamide], the IC50 with rat platelet stood at 1.7 µM; in assay [1] it was 0.11 µM. On the same counts, the results for `O=C(O)CCCCCNC(=O)C(COC1CCCCO1)NS(=O)(=O)c1ccc(Cl)cc1` (racemic) [Example 49, (RS)-N-(5-carboxypentyl)-2-(4-chlorobenzenesulfonylamino)-3-(tetrahydropyran-2-yloxy)propanamide] are 0.4 µM and 1.7 µM. The corresponding values for `O=C(O)CCCCCCNC(=O)C(COC1CCCCO1)NS(=O)(=O)c1ccc(Cl)cc1` (racemic) [Example 50, (RS)-N-(6-carboxyhexyl)-2-(4-chlorobenzenesulfonylamino)-3-(tetrahydropyran-2-yloxy)propanamide] are 1.75 µM and 1 µM. Consider `O=C(O)Cc1ccc(NC(=O)C(COC2CCCCO2)NS(=O)(=O)c2ccccc2)cc1` (racemic) [Example 52, (RS)-2-(benzenesulfonylamino)-N-(4-(carboxymethyl)phenyl)-3-(tetrahydropyran-2-yloxy) propanamide], for which the values for the half-maximal inhibitory concentration (IC50) (with rat platelet; in assay [1]) were 1.7 µM and 2.2 µM, respectively. For the compound `O=C(O)Cc1ccc(NC(=O)C(COC2CCCCO2)NS(=O)(=O)c2ccc(F)cc2)cc1` (racemic) [Example 53, (RS)-N-(4-(carboxymethyl)phenyl)-2-(4-fluorobenzenesulfonylamino)-3-(tetrahydropyran-2-yloxy)propanamide], the IC50 with rat platelet was 0.53 µM; in assay [1] it was 0.2 µM. `Cc1ccc(S(=O)(=O)NC(COC2CCCCO2)C(=O)Nc2ccc(CC(=O)O)cc2)cc1` (racemic) [Example 56, (RS)-N-(4-(carboxymethyl)phenyl)-2-(4-methylbenzenesulfonylamino)-3-(tetrahydropyran-2-yloxy)propanamide]: the IC50 with rat platelet stood at 1.7 µM; in assay [1], 0.3 µM.

Take `COc1ccc(S(=O)(=O)NC(COC2CCCCO2)C(=O)Nc2ccc(CC(=O)O)cc2)cc1` (racemic) [Example 57, (RS)-N-(4-(carboxymethyl)phenyl)-2-(4-methoxybenzenesulfonylamino)-3-(tetrahydropyran-2-yloxy)propanamide]: the half-maximal inhibitory concentration (IC50) was determined as 0.53 µM with rat platelet and 0.15 µM in assay [1]. On the same counts, the results for `O=C(O)Cc1ccc(NC(=O)C(COC2CCCCO2)NS(=O)(=O)c2ccc(Cl)c([N+](=O)[O-])c2)cc1` (racemic) [Example 58, (RS)-N-(4-(carboxymethyl)phenyl)-2-(4-chloro-3-nitrobenzenesulfonylamino)-3-(tetrahydropyran-2-yloxy)propanamide] are 5.3 µM and 1.4 µM. As for `O=C(O)Cc1ccc(NC(=O)C(COC2CCCCO2)NS(=O)(=O)c2ccc3ccccc3c2)cc1` (racemic) [Example 60, (RS)-N-(4-(carboxymethyl)phenyl)-N-(4-(carboxymethyl)phenyl)-2-(2-naphthalenesulfonylamino)-3-(tetrahydropyran-2-yloxy)propanamide], the IC50 in the assay on rat platelet came to 5.3 µM; in assay [1], 0.23 µM. With `O=C(O)Cc1ccc(NC(=O)C(Cn2ccnc2)NS(=O)(=O)c2ccc(Cl)cc2)cc1` (racemic) [Example 94, (RS)-N-(4-(carboxymethyl)phenyl)-2-(4-chlorobenzenesulfonylamino)-3-(1H-imidazol-1-yl)propanamide hydrochloride], the values for the IC50 (with rat platelet; in assay [1]) were 1.7 µM and 0.86 µM, respectively.

Take `O=C(O)CCc1ccc(NC(=O)C(Cn2ccnc2)NS(=O)(=O)c2ccc(Cl)cc2)cc1` (racemic) [Example 95, (RS)-N-(4-(2-carboxyethyl)phenyl)-2-(4-chlorobenzenesulfonylamino)-3-(1H-imidazol-1-yl)propanamide hydrochloride]: the results for the IC50 (in the assay with rat platelet; in assay [1]) were 1.79 µM and 1.5 µM, respectively. On the same counts, the results for `O=C(O)CCCCCCNC(=O)C(Cn1ccnc1)NS(=O)(=O)c1ccc(Cl)cc1` (racemic) [Example 101, (RS)-N-(6-carboxyhexyl)-2-(4-chlorobenzenesulfonylamino)-3-(1H-imidazol-1-yl)propanamide hydrochloride] are 1.7 µM and 0.41 µM.

In the case of `O=C(O)Cc1ccc(NC(=O)C(Cn2ccnc2)NS(=O)(=O)c2ccc(F)cc2)cc1` (racemic) [Example 103, (RS)-N-(4-(carboxymethyl)phenyl)-2-(4-fluorobenzenesulfonylamino)-3-(1H-imidazol-1-yl)propanamide], the IC50 in the assay on rat platelet was determined as 1.7 µM; in assay [1], 1.9 µM. On to `O=C(O)Cc1ccc(NC(=O)C(Cn2ccnc2)NS(=O)(=O)c2ccc(Br)cc2)cc1` (racemic) [Example 104, (RS)-2-(4-bromobenzenesulfonylamino)-N-(4-(carboxymethyl)phenyl)-3-(1H-imidazol-1-yl)propanamide], for which the 50% inhibitory concentration (IC50) turned out to be 1.7 µM with rat platelet and 0.18 µM in assay [1]. On to `O=C(O)Cc1ccc(NC(=O)C(COc2cccnc2)NS(=O)(=O)c2ccc(Cl)cc2)cc1` (racemic) [Example 116, (RS)-N-(4-(carboxymethyl)phenyl)-2-(4-chlorobenzenesulfonylamino)-3-(pyridin-3-yloxy)propanamide hydrochloride], for which the IC50 in the assay with rat platelet is 0.95 µM; in assay [1], 0.5 µM.

As for `CSCCC(NS(=O)(=O)c1ccc(Cl)cc1)C(=O)Nc1ccc(CCC(=O)O)cc1` (racemic) [Example 236, (RS)-N-(4-(2-carboxyethyl)phenyl)-2-(4-chlorobenzenesulfonylamino)-4-methylthiobutanamide], the IC50 in assay [1] was determined as 0.42 µM. Still for that read-out and setting: next, `CCCC[C@H](NS(=O)(=O)c1ccc(Br)cc1)C(=O)Nc1ccc(CC(=O)O)cc1` [Example 227, (S)-2-(4-bromobenzenesulfonylamino)-N-(4-(carboxymethyl)phenyl)hexanamide]: 0.045 µM; `CCCC[C@H](NS(=O)(=O)c1ccc(Br)cc1)C(=O)Nc1ccc(CCC(=O)O)cc1` [Example 228, (S)-2-(4-bromobenzenesulfonylamino)-N-(4-(2-carboxyethyl)phenyl)hexanamide]: 0.057 µM.

In assay [1], `CCSCC[C@H](NS(=O)(=O)c1ccc(Br)cc1)C(=O)Nc1ccc(CCC(=O)O)cc1` [Example 246, (S)-2-(4-bromobenzenesulfonylamino)-N-(4-(2-carboxyethyl)phenyl)-4-ethylthio-butanamide] gave a 50% inhibitory concentration (IC50) of 0.034 µM.

In assay [1], `O=C(O)Cc1ccc(NC(=O)[C@@H](Cc2ccccc2)NS(=O)(=O)c2ccc(Br)cc2)cc1` [Example 253, (R)-2-(4-bromobenzenesulfonylamino)-N-(4-(carboxymethyl)phenyl)-3-phenylpropanamide] returned an IC50 of 1.3 µM.

Regarding `O=C(O)Cc1ccc(NC(=O)[C@H](Cc2c[nH]c3ccccc23)NS(=O)(=O)c2ccc(Cl)cc2)cc1` [Example 258, (S)-N-(4-(carboxymethyl)phenyl)-2-(4-chlorobenzenesulfonylamino)-3-(3-indolyl) propanamide], the IC50 with rat platelet is 0.53 µM.
